“Also recorded” adds a separate entry of the source.
Assays:
[1] = Glucose clearance in somatostatin-infused minipigs after glucose bolus; type: in vivo; conditions: transbuccal strips of NP-insulin, μg DoD/strip, period of 40 to 60 minutes, FIG. 8
Method: Minipigs were infused with somatostatin in order to suppress endogenous insulin secretion. They were then given a bolus injection of 0.33 gm/kg glucose. After thirty minutes the test item was given and the first order rate constant for glucose clearance (k) was calculated for the period of 40 to 60 minutes.
Test items included: 1. Strips containing 4 U insulin on nanoparticle applied transbuccal; 2. Strips containing 4 U insulin on nanoparticle dodecyl-β-D-maltoside applied transbuccal; 3. Subcutaneous (s.c.) nanoparticle-insulin (NP-insulin); 4. S.C. commercial Humalog® insulin.

[2] = tested on: insulin-carrying gold nanoparticles ("GNPI"); experiment: Insulin release from insulin-carrying gold nanoparticles incubated with permeation enhancer, BCA protein assay of supernatant; type: physicochemical
Method: […] Samples were mixed and left at RT for 1 h, they were then spun for 2 min at 18000 g and 10 μl of each supernatant was measured by BCA protein assay to determine insulin release, a blank and a positive control in which no TDM was added and the sample was not spun were also included.
The sample tubes were vortexed and left at RT for a further 95 h (for a total of 96 hours) and re-assayed as above to see if there was any further indication of insulin release.
In a follow on experiment lysalbinic acid (LAA) was also tested as an alternative potential permeation enhancer, the same protocol was used as for TDM above.

SMILES | first order rate constant for glucose clearance (k) against dosage of DoD [1] | insulin release by TDM over 0 TDM control ([2]; 1 h at RT in water, 2.5-67.5 μg TDM in 0.5 ml, FIG. 2) | further insulin release after a total of 96 hours ([2]; 96 h at RT in water, FIG. 3) | loss of bound active from active-carrying nanoparticle ([2]; 96 hours of incubation in solution) | percentage of insulin released against percentage of permeation enhancer ([2]; insulin level of 75 U/ml, FIG. 5 and FIG. 6) | effect on insulin release from GNPI (overall conclusion) ([2]; range of concentrations, in water, short or medium term)
CCCCCCCCCCCCO[C@@H]1O[C@H](CO)[C@@H](O[C@H]2O[C@H](CO)[C@@H](O)[C@H](O)[C@H]2O)[C@H](O)[C@H]1O [DoD, dodecyl-β-D-maltoside] | apparent dose-dependence; also recorded: clear dose-dependence |  |  |  |  | 
CCCCCCCCCCCCCCO[C@@H]1O[C@H](CO)[C@@H](O[C@H]2O[C@H](CO)[C@@H](O)[C@H](O)[C@H]2O)[C@H](O)[C@H]1O [TDM, tetradecyl-D-maltoside] |  | less than 5% | no further release | without significant loss of bound active | lack of effect | no gross effect

Source: patent publication US20140220135A1, “PERMEATION ENHANCED ACTIVE-CARRYING NANOPARTICLES” (Midatech Limited, priority 2013, published 2014)
